The test deals with CEM cells HIV-1 protection, formazan growth assay. The test can be described thus: NCI AIDS Antiviral Assay. The settings on record: for pIC50: measured here: growth of uninfected CEM cells. A digest of the protocol: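 Human CEM cells, uninfected and HIV-1-infected, exposed to five drug concentrations; growth measured by soluble formazan assay and scored as percent protection from infection, with protecting compounds retested.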

pEC50, pIC50: −log10 of the molar value. Active and inactive are the calls of the source.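 Rule for the calls: active = compounds giving half or more protection of infected cells from virus-caused growth loss, again on retest; inactive = the rest.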 Some results are limits rather than exact numbers.

As usually defined, the pEC50 is the negative decadic logarithm of the EC50, by convention in mol/L. A word on the pIC50: it is −log10 of the IC50, conventionally taken in molar units. Higher therefore signals a small IC50. For `CC(C)N1CN(c2ccccc2)C2(CCN(CCCC(=O)c3ccc(F)cc3)CC2)C1=O`, the pEC50 was less than 3.70 and the pIC50 was 5.24. For `NC(=O)c1nnn(Cc2ccccc2)c1N` the same measures were less than 3.70 and less than 3.70. Regarding `Cc1ccccc1-c1c(N)nc(N)nc1C(=O)Nc1nccs1`, the pEC50 was less than 4.38 and the pIC50 was less than 4.38. In the case of `CC1=C[C@@H]2c3cc(c(O)cc3O)C(=O)[C@H]3C(c4ccc(O)cc4O)CC(C)=C[C@@H]3c3cc(c(O)cc3O)C(=O)C2C(c2ccc(O)cc2O)C1` (some centres not stated), the outcome was inactive.

`Cc1cc(N)c2ccccc2[n+]1CCCCCCCCCC[n+]1c(C)cc(N)c2ccccc21`: the pEC50 is less than 4.61 and the pIC50 is 6.81. In the case of `Nc1cccc(N=Nc2c(S(=O)(=O)O)cc3cc(Nc4ccc5c(O)c(N=Nc6cccc(N)c6)c(S(=O)(=O)O)cc5c4)ccc3c2O)c1`, the outcome was inactive. In the case of `Cc1cc(=O)oc2cc(O/C(=C\c3ccccc3)c3nc4ccccc4c(=O)o3)ccc12`, the result was inactive. With `O=C1C(=O)N(c2cc(Cl)ccc2Cl)C(=O)C(=O)C1c1nc2ccccc2s1`, the result was inactive. Turning to `Cc1cc(Cc2cccc3ccccc23)nc2c1ccc1ccccc12`, the pEC50 was less than 3.70 and the pIC50 was 3.96. Take `CC(C)(CO)CNc1nc(N)nc(Cl)c1N`: the pEC50 was less than 3.70 and the pIC50 is less than 3.70. For the compound `CCOC(=O)c1cc2c(ccc3cc(C(=O)OCC)[nH]c32)[nH]1`, the pEC50 was less than 3.70 and the pIC50 is less than 3.70.

Turning to `O=C1/C(=C\c2cccc(Oc3ccccc3)c2)S(=O)(=O)C(c2ccccc2)N1c1ccccc1Cl` (configuration not stated), the pEC50 was less than 5.70 and the pIC50 is 7.37. As for `Cc1ccc(NC(=S)N/C=C(\c2ccccc2)S(=O)Cc2ccccc2)c(C)c1` (configuration not stated), the pEC50 is less than 3.70 and the pIC50 was 4.03. For the compound `COP(=O)(OC)/C(=C/c1cn(C(C)=O)c2ccccc12)NC(C)=O`, the pEC50 was less than 3.70 and the pIC50 is 4.76. Turning to `CCCCCCCCCCCCCCCC(=O)OCCOCCOCCOCCOCCOC(=O)CCCCCCCCCCCCCCC`, the result was inactive. In the case of `C=CCn1c(-c2ccc(Cl)cc2)csc1=Nc1ccccc1OC`, the pEC50 is less than 3.70 and the pIC50 is less than 3.70.

Regarding `COc1ccccc1NC(=O)c1nc2ccc([N+](=O)[O-])cc2nc1C`, the pEC50 is less than 3.83 and the pIC50 was less than 3.83. `CC(C)(Br)C(=O)C(Br)Br`: the pEC50 is less than 3.70 and the pIC50 was 5.28. On to `OCCNNCCO`, for which the pEC50 was less than 3.70 and the pIC50 was less than 3.70. As for `CC1=NN(C(=O)CC(=O)Nc2ccc(Cl)cc2)C(=O)C1N=Nc1ccc(S(=O)(=O)c2ccc(N=NC3C(=O)N(C(=O)CC(=O)Nc4ccc(Cl)cc4)N=C3C)cc2)cc1` (configuration not stated), the pEC50 was less than 4.30 and the pIC50 is less than 4.30. With `CCNC(=S)N/N=C(/c1ccccc1)c1ccccn1`, the pEC50 was less than 3.70 and the pIC50 is 6.00.

With `O=c1ccc2c(-c3ccccc3S(=O)(=O)O)c3ccc(O)c(O)c3oc-2c1O`, the pEC50 is 5.62 and the pIC50 is less than 3.70. `CC(=O)OC1[C@@H](OC(C)=O)CN(OCc2ccccc2)C[C@H]1OC(C)=O` (some centres not stated): the pEC50 is less than 3.70 and the pIC50 was less than 3.70. Turning to `CC(=O)Nc1ccc(S(=O)c2ccc(NC(C)=O)cc2)cc1`, the pEC50 is less than 4.09 and the pIC50 was less than 4.09. For the compound `O=C1C2=C(c3ccccc31)C(c1ccccc1Cl)N1C(=O)CSC1=N2` (configuration not stated), the pEC50 was less than 4.43 and the pIC50 is less than 4.43.

For `O=C(O)c1c2c(nc3ccccc13)-c1ccccc1C1(CCCC1)C2`, the pEC50 was less than 3.33 and the pIC50 was 3.77.

On to `NC1CS(=O)(=O)CC1O` (configuration not stated), for which the pEC50 is less than 3.70 and the pIC50 was less than 3.70. As for `O=C1CN(Cc2cccc(Cl)c2)CC(=O)N2Cc3ccccc3CN12`, the outcome was inactive. For `CC1(C)CC[C@H](C2=CC(=O)c3c(O)ccc(O)c3C2=O)O1`, the pEC50 is less than 4.04 and the pIC50 is 7.02. With `CCC(C)[C@H](NC(=O)c1ccccc1S)C(=O)O` (some centres not stated), the pEC50 is 5.07 and the pIC50 was 3.96.

As to `COc1ccc2c(c1)C1c3ccccc3CCN1CCC2` (configuration not stated), the pEC50 is less than 3.70 and the pIC50 is 4.10. Regarding `C(=C\c1ccccc1)/C[P+](c1ccccc1)(c1ccccc1)c1ccccc1`, the pEC50 is less than 3.70 and the pIC50 is 6.28. `COC12c3ccccc3-c3ccccc3C1[C@H]1C(=O)OC(=O)[C@H]12` (some centres not stated): the pEC50 is less than 3.79 and the pIC50 is less than 3.79.

`CC(C)Sc1nncc(/C(N)=N/O)n1`: the pEC50 is less than 3.70 and the pIC50 was less than 3.70. As for `OC1(CN2CCOCC2)N=C(c2ccccc2)c2ccsc2-n2cccc21` (configuration not stated), the pEC50 is less than 3.70 and the pIC50 is less than 3.70. Regarding `Cc1cccc(-c2nc(-c3cnccn3)n(Cc3ccccc3)n2)c1`, the pEC50 is less than 3.70 and the pIC50 was less than 3.70. Turning to `CC(=O)Nc1ccc(C(=O)NN2C(=O)C(Cl)C2c2ccc([N+](=O)[O-])cc2)cc1` (configuration not stated), the pEC50 was less than 3.70 and the pIC50 is 3.95. In the case of `Cc1cc(C)nc(NS(=O)(=O)c2ccc(Nc3c4ccccc4nc4c(C(=O)N5CCN(CCO)CC5)ccc(Cl)c34)cc2)n1`, the pEC50 was less than 4.46 and the pIC50 was less than 4.46.

Take `O=C(O)/C=C\Sc1ccccc1C(=O)O`: the pEC50 is less than 2.95 and the pIC50 is less than 2.95. Consider `C/C(=C\CNc1ncnc2nc(Cl)[nH]c12)CO`, for which the pEC50 is less than 3.70 and the pIC50 was less than 3.70.

In the case of `O=C(O)CN1C(=O)CN=C(c2ccccn2)c2cc(Cl)ccc21`, the pEC50 is less than 3.12 and the pIC50 was less than 3.12. As for `O=[N+]([O-])c1cccc(N=Cc2ccc(O)cc2)c1`, the pEC50 is less than 3.70 and the negative-log IC50 (pIC50) was 3.74.

Take `O=c1ccn(C2OC(CN(O)CCC3C(CO)OC(n4ccc(=O)[nH]c4=O)C3O)C(O)C2O)c(=O)[nH]1` (configuration not stated): the pEC50 was less than 3.70 and the pIC50 was 3.90. With `COc1cc(N=Nc2ccccc2C(=O)[O-])cc(/C=N/NC(=S)Nc2ccc(C)cc2)c1[O-].[Cu+].[Cu+]`, the result was inactive.

Turning to `CCN(CC)CC(=O)Nc1cccc(Cl)c1`, the pEC50 is less than 3.70 and the pIC50 was less than 3.70. On to `O=C1CSc2cc([N+](=O)[O-])ccc2N1`, for which the pEC50 is less than 3.91 and the pIC50 is less than 3.91. On to `COc1cc(/C=C/c2ccc(O)c(OC)c2)cc(OC)c1`, for which the pEC50 is less than 3.90 and the pIC50 was 5.67. Consider `O=C(c1ccccc1)C(SSC(C(=O)c1ccccc1)C(=O)c1ccccc1)C(=O)c1ccccc1`, for which the pEC50 is less than 3.70 and the pIC50 was 4.76.

Consider `CC(=Nc1ccccc1C(=O)[O-])c1c([O-])ccc2c(C)cc(=O)oc12.[Co+2].[OH3+].[OH3+].[OH3+]`, for which the pEC50 was less than 5.49 and the pIC50 was less than 5.49. As for `c1ccc(N2N=C3N(c4ccccc4)C2N3c2ccccc2)cc1`, the pEC50 is less than 3.70 and the pIC50 was 4.52. As to `C=CCOc1ccc(/C(N=Nc2ccc([N+](=O)[O-])cc2)=N/NC(=O)c2ccccc2)cc1OC`, the pEC50 was less than 3.70 and the pIC50 is 3.75. For `Cc1ccc(S(=O)(=O)N/C(=C\C=C\c2ccccc2)C(=O)C(C)(C)C)cc1` the same measures were 4.41 and 4.24. `O=C(O)CC[C@@]1(C(=O)O)NC(C(=O)O)Cc2[nH]cnc21` (some centres not stated): the pEC50 was less than 3.36 and the pIC50 is less than 3.36. With `O=C(Cc1nc2ccccc2c(=O)n1-c1ccccc1Cl)c1ccncc1`, the pEC50 was less than 5.27 and the pIC50 was less than 5.27. With `c1ccc2c(N3CC3)nncc2c1`, the pEC50 is less than 3.70 and the pIC50 is less than 3.70. On to `COc1ccc2nccc3c2c1NC(Cl)=C3`, for which the pEC50 is less than 3.70 and the pIC50 is 5.80.

With `CC(=O)OCC12C(OC(C)=O)C[C@@H](C)C3(CC(c4ccoc4)OC3=O)C1CCC(O)C21CO1` (some centres not stated), the pEC50 is less than 3.70 and the pIC50 was less than 3.70. For `O=C1O[C@H](COC(=O)c2ccccc2)[C@@H](OC(=O)c2ccccc2)C=C1OC(=O)c1ccccc1`, the pEC50 is less than 3.70 and the pIC50 was 4.69. For `CCOC(=O)C1=C(C)N(NC(=O)c2ccccc2)C2(O)CCCC12C(=O)OCC` (configuration not stated) the same measures were less than 3.35 and 3.61.

Turning to `c1ccc2c3c(ccc2c1)CN1CCCCC1C3` (configuration not stated), the pEC50 is less than 3.17 and the pIC50 is 4.31.

`CCCCC/C(=N\c1nc[nH]c1C(N)=O)OCC`: the pEC50 is less than 3.70 and the pIC50 is less than 3.70. With `O=C(Nc1ccccc1S)c1ccccc1`, the pEC50 is 5.17 and the pIC50 was 4.98.

For the compound `Nc1ccc(Cl)c(-c2nc3ccccc3[nH]2)c1`, the pEC50 is less than 4.11 and the pIC50 was less than 4.11.

On to `OCc1ccc(C2CC(c3ccco3)=NN2c2ccccc2)o1` (configuration not stated), for which the pEC50 is less than 4.77 and the pIC50 is less than 4.77.

For the compound `N#CC(NNC(=O)c1ccccc1O)c1ccc(O)cc1` (configuration not stated), the pEC50 is less than 3.48 and the pIC50 is 5.71. Consider `CN1CC[C@@H](O)[C@@H](CNC23CC4CC(CC(C4)C2)C3)C1`, for which the outcome was inactive. Turning to `CC(C)OC1OC(CO)C(O)CC1n1cc(F)c(=O)[nH]c1=O` (configuration not stated), the pEC50 was less than 3.70 and the pIC50 is 4.61. In the case of `CCOC(=O)C(C(=S)Nc1ccccc1)c1nn2c(=O)cc(C)nc2s1` (configuration not stated), the pEC50 was less than 3.70 and the pIC50 was 4.46. Take `CCOC(=O)/C(=C/c1ccc[nH]1)P(=O)(OCC)OCC`: the pEC50 is less than 3.36 and the pIC50 was less than 3.36. Take `C=C(c1cc(Br)c(OC)c(C(=O)OC)c1)c1cc(Br)c(OC)c(C(=O)OC)c1`: the pEC50 was less than 4.00 and the pIC50 is less than 4.00. Consider `N#Cc1c(Cl)cc(C#N)n2c1nc1ccccc12`, for which the pEC50 is less than 4.70 and the pIC50 is 6.44. As for `OCC(O)CC[CH2][Sn]([Br])([c]1ccccc1)[c]1ccccc1` (configuration not stated), the outcome was inactive. In the case of `CCCC(=O)Nc1c(I)cc(I)c(CC(CC)C(=O)O)c1I` (configuration not stated), the pEC50 was less than 3.70 and the pIC50 was less than 3.70.

The record behind these values is PubChem BioAssay AID179 (DTP/NCI, 2004).
